Test results as given in patent US9969694B2, “N-(arylalkyl)-N′-pyrazolyl-urea, thiourea, guanidine and cyanoguanidine compounds as TrkA kinase inhibitors” (Array BioPharma Inc., priority 2012, dated 2018).
pIC50: −log10 of the molar value.

Each compound was assayed against T1, His-tagged recombinant human TrkA (Homo sapiens, UniProt P04629) (assay: TrkA Kinase Binding Assay (LanthaScreen Eu)). Settings: averaged IC50; TR-FRET binding, 60 min, 22° C.; read-out: TrkA Enzyme IC50.
T1 construct: 6HIS tagged cytoplasmic domain from Invitrogen, Catalog No. PV3144; purchased Invitrogen PV3144
In short: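 TR-FRET tracer displacement: 5 nM His-tagged TrkA cytoplasmic domain with 4 nM Tracer 236, biotinylated anti-His and Eu-streptavidin in pH 7.5 MOPS buffer, 2% DMSO, 60 min at 22 °C. 665/615 nm emission ratio gave percent of control; IC50 from four-parameter fit.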

T1 sequence (P04629 440-796 limits assumed): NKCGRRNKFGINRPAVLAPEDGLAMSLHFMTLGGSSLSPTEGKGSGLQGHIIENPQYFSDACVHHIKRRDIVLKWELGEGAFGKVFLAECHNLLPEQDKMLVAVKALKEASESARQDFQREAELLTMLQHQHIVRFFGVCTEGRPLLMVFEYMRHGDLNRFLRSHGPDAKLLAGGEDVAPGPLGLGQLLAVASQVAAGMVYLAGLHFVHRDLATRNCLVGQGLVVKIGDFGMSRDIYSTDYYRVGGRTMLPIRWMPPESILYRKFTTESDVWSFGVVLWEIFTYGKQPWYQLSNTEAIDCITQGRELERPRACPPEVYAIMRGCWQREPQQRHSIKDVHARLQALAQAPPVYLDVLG

Row | SMILES | pIC50
1 | COCc1cccc(C(NC(=O)Nc2c(C)c(-c3ccc(=O)n(C)c3)nn2-c2ccccc2)C2CC2)c1 (stereo not drawn) [Example 26, 1-(cyclopropyl(3-(methoxymethyl)phenyl)methyl)-3-(4-methyl-3-(1-methyl-6-oxo-1,6-dihydropyridin-3-yl)-1-phenyl-1H-pyrazol-5-yl)urea] | 6.00 to 7.00
2 | COCc1ccc(OC(F)(F)F)c(CNC(=O)Nc2c(C)c(O[C@@H]3CCN(C)C[C@@H]3F)nn2-c2ccccc2)c1 [Example 101, 1-(3-(((3S,4R)-3-fluoro-1-methylpiperidin-4-yl)oxy)-4-methyl-1-phenyl-1H-pyrazol-5-yl)-3-(5-(methoxymethyl)-2-(trifluoromethoxy)benzyl)urea] | > 7.00
3 | Cc1ccccc1CC(NC(=O)Nc1c2c(nn1-c1ccccc1)CCC2)c1ccccc1 (stereo not drawn) [Example 39, 1-(2-phenyl-2,4,5,6-tetrahydrocyclopenta[c]pyrazol-3-yl)-3-(1-phenyl-2-o-tolylethyl)urea] | 6.00 to 7.00
4 | COCc1ccc(C2CCC2)c(CNC(=O)Nc2c3c(nn2-c2ccccc2)CSC3)c1 [Example 120, 1-(2-cyclobutyl-5-(methoxymethyl)benzyl)-3-(2-phenyl-4,6-dihydro-2H-thieno[3,4-c]pyrazol-3-yl)urea] | > 7.00
5 | COCc1ccc(OC2CCC2)c(CNC(=O)Nc2c(C)c(-c3ccc(C)nc3)nn2-c2ccccc2)c1 [Example 19, 1-(2-cyclobutoxy-5-(methoxymethyl)benzyl)-3-(4-methyl-3-(6-methylpyridin-3-yl)-1-phenyl-1H-pyrazol-5-yl)urea] | > 7.00

More lines, now with the values ahead:

Row | pIC50 | SMILES
6 | > 7.00 | COCc1ccc(C2CCC2)c(CNC(=O)Nc2c(C)c(OCc3nnc(C)o3)nn2-c2ccccc2)c1 [Example 126, 1-(2-cyclobutyl-5-(methoxymethyl)benzyl)-3-(4-methyl-3-((5-methyl-1,3,4-oxadiazol-2-yl)methoxy)-1-phenyl-1H-pyrazol-5-yl)urea]
7 | > 7.00 | COCc1ccc(OC(F)F)c(CNC(=O)Nc2c(C)c(-c3cnc(OC)nc3)nn2-c2ccccc2)c1 [Example 62, 1-(2-(difluoromethoxy)-5-(methoxymethyl)benzyl)-3-(3-(2-methoxypyrimidin-5-yl)-4-methyl-1-phenyl-1H-pyrazol-5-yl)urea]
8 | > 7.00 | COCc1ccc(OC(F)(F)F)c(CNC(=O)Nc2c(C)c(-c3cc(C)c(=O)n(C)c3)nn2-c2ccccc2)c1 [Example 74, 1-(3-(1,5-dimethyl-6-oxo-1,6-dihydropyridin-3-yl)-4-methyl-1-phenyl-1H-pyrazol-5-yl)-3-(5-(methoxymethyl)-2-(trifluoromethoxy)benzyl)urea]
9 | > 7.00 | CNC(=O)c1nn(-c2ccccc2)c(NC(=O)NCc2cc(COC)ccc2OC(F)F)c1C [Example 56, 5-(3-(2-(difluoromethoxy)-5-(methoxymethyl)benzyl)ureido)-N,4-dimethyl-1-phenyl-1H-pyrazole-3-carboxamide]
